Measured values taken from patent US20240368133A1, “Compounds for the Treatment of Pain, in Particular, Neuropathic Pain, and/or Other Diseases or Disorders that are Associated with AT2R and/or AT2R Mediated Signaling” (Confo Therapeutics N.V., priority 2021, published 2024).

Tests used:
[1] = Metabolic stability in hepatocytes, dog; type: in vitro ADME; conditions: Beagle, pooled cryopreserved hepatocytes, read-out: Dog Clint (μL/min/10^6 cells)
Method: The aim of this assay is to determine the metabolic stability of the compound in hepatocytes (cryopreserved) of different species (mouse CD1, rat Sprague Dawley, dog Beagle). Low hepatocyte stability may result in the formation of unwanted metabolites, high clearance, and therefore is not desirable. The decrease in parent was assessed by measuring the percentage remaining by LC-MS/MS analysis. The batches of hepatocytes were tested for quality control using Testosterone, Umbelliferone and Caffeine as reference compounds.
A 10 mM stock solution of test compound in DMSO was first diluted in DMSO to 3 mM, and then in modified Krebs-Henseleit buffer (Sigma, K3753) to 5 μM. This compound dilution was added to a suspension of pooled cryopreserved hepatocytes (BioIVT) at 37° C. under gentle shaking. […]
After 0, 10, 20, 45, 90, 120 and 180 min of incubation, the reaction was terminated with 3 volumes of MeCN:MeOH (2:1) containing diclofenac as analytical internal standard. Samples were mixed, centrifuged and the supernatant analyzed by LC-MS/MS (systems API4000). […]
Testosterone (1 μM) and Umbelliferone (1 μM) and Caffeine (1 μM) were used as reference compounds, being unstable and stable compounds respectively. If the hepatocyte stability values for these controls are not in the range determined by the historical data, the assay is not validated.

[2] = Plasma protein binding (equilibrium dialysis), dog; type: in vitro ADME; conditions: for fraction unbound at 4 h, 5 µM: equilibrium dialysis, read-out: PPB (%), dog (converted); for recovery at 4 h, 5 µM: plasma (freshly thawed), PPB assay recovery
Method: Prior to the start of the experiment, dialysis membranes (membrane strips, MW cut-off 12-14 kDa, HTDialysis, Cat.NoJl 101) are soaked in deionized water for 60 min, transferred and left overnight in 20% EtOH. The day of experiment, a 10 mM stock solution of the compound in DMSO is diluted with a factor 10 in DMSO. This solution is further diluted in freshly thawed human, rat, mouse or dog plasma (BioIVT) with a final concentration of 5 μM and final DMSO concentration of 0.5%.
From this solution, an aliquot of 50 μL was taken and matrix matched with an equivalent volume of PBS for the recovery plate, after which 6 volumes of STOP solution were added to the recovery plate. For these recovery plates, no incubation is done.
Equilibrium Dialysis Device (96-well, model HTD96b, HTDialysis, Cat. No. #1006) is assembled according to manufacturer's instructions. Immediately after assembly, a volume of 100 μL of plasma (spiked with compound) is placed on one side of the well and another 100 μL of blank PBS buffer are added to the other side, respectively. Each compound is tested in duplicate. Acebutolol and Nicardipine are used as low and very high binding controls, except for the mouse, Caffeine is used as low binder instead Acebutolol. If the PPB values for these controls are not in the range determined by the historical data, the assay is not validated.
The plate is incubated for 4 h at 37° C. while shaking at 230 rpm. Thereafter, an aliquot of 50 μL is taken from each side of the well and matrix matched (mix of equal volumes of spiked plasma with blank PBS buffer and samples from buffer compartment with blank plasma). Matrix matched samples are further mixed with 3 volumes of STOP solution (acetonitrile/MeOH 2/1 with diclofenac as internal standard). After brief mixing and centrifugation (at 2400 rpm for 15 min, at +4° C.), the supernatant is filtered and transferred into new 96-well plates for analysis on LC-MS/MS (systems API4000).
The percentage of plasma protein bound compound and recovery were calculated using following equations:
with: • Cplasma=peak area of the compound in the plasma/peak area of the IS in the plasma • Cbuffer=peak area of the compound in the buffer/peak area of the IS in the buffer • ‘Concentration’ is the ratio between compound and IS peak areas
The recovery is a control, which allows to be sure that the compound has not a non-specific binding to the plates or is not stable in the plasma in these conditions:
with: • PBS=(ratio of the peak area of the compound/peak area of the IS) in the PBS compartment after 4 h • Plasma=(ratio of the peak area of the compound/peak area of IS) in the plasma compartment after 4 h • Recov=Recovery=ratio of the peak are of the compound I the well recovery/peak area of the IS in the well recovery at TO […]

[3] = Thermodynamic solubility protocol 1 (PBS pH 7.4, citrate buffer pH 3.0); type: physicochemical; conditions: 25° C.
Method: In a 8 mL glass vial, 1-2 mg of dry matter of the test compound were mixed with the suitable buffers (phosphate-buffered saline pH 7.4 (138 mM NaCl, 2.7 mM KCl, 10 mM K-phosphate) or 100 mM citrate buffer pH 3.0) to reach a theoretical concentration of 4 mM. The solutions were allowed to further equilibrate at 25° C. on a thermostatic shaker. After 4 and 24 hours of shaking, respectively, the incubation mixtures were filtered through HTS filter plates using a vacuum manifold. The filtrates of test compounds were diluted 2-fold with acetonitrile with 4% DMSO before measuring. In parallel, using a 20 mM DMSO stock solution, compound dilutions in 50% acetonitrile/buffer were prepared to the theoretical concentrations of 0 μM (blank), 10 μM, 25 μM, 50 μM, 100 μM and 200 μM with 2% final DMSO to generate calibration curves.
Ondansetron (Sigma Aldrich USA, cat #03639) was used as a reference to control proper assay performance. 200 μl of each sample were transferred to a 96-well plate and solubility was measured in a 200-550 nm range (in steps of 5 nm). The measurements were performed using a Spectra Max Plus reader in UV-Vis mode. Acquisition and analysis of the data were performed using SoftMax Pro v.5.4 (Molecular Devices) and Excel 2010 data analysis software. Proper absorbance wavelengths for calculations were selected for each compound manually based on absorbance maximums (absolute absorbance unit values for the minimum and maximum concentration points within 0-3 OD range). Each of the final datasets was additionally visually evaluated by the operator and goodness of fit (R2) is calculated for each calibration curve.

| hepatocyte CLint at 1 µM [1] [µL/min/1e6 cells] | fraction unbound at 4 h, 5 µM [2] | recovery at 4 h, 5 µM [2] [%] | TSOL pH 3.0 ([3]; time point 4 h) [μM] | TSOL pH 7.4 ([3]; time point 4 h) [μM] | TSOL pH 3.0 ([3]; time point 24 h) [μM] | TSOL pH 7.4 ([3]; time point 24 h) [μM] | SMILES |
| --- | --- | --- | --- | --- | --- | --- | --- |
| < 5.1 | 0.042 | 96 | – | – | – | – | CC(C)Cc1cc(F)c(-c2nn[nH]n2)c(N2CCN(Cc3ccccn3)[C@@H](C)C2)c1 [Compound A-217, (2S)-4-[3-fluoro-5-isobutyl-2-(2H-tetrazol-5-yl)phenyl]-2-methyl-1-(2-pyridylmethyl)piperazine] |
| < 5.1 | 0.062 | 97 | ≥400 | >400 | ≥400 | >400 | CC(C)Cc1cc(F)c(-c2nn[nH]n2)c(N2CCN(Cc3cccnn3)[C@@H](C)C2)c1 [Compound A-174, 3-[[(2S)-4-[3-fluoro-5-isobutyl-2-(2H-tetrazol-5-yl)phenyl]-2-methyl-piperazin-1-yl]methyl]pyridazine] |
